Here are results for six compounds from PubChem BioAssay AID1918943 (Molecular Pharmacology Branch, DTP, NCI, 2023).

The subject of the assay is 855422-203-R-J1-PDC complex spheroid viability. Description: Anticancer human tumor 855422-203-R-J1-PDC patient-derived bladder carcinoma cell line growth inhibition. Conditions: for viability, T/C: stronger effect = lower value. Put shortly:
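Multicellular complex spheroids of tumor cells with human endothelial cells (HUVEC) and mesenchymal stem cells; the LSD1 inhibitor iadademstat was combined with standard-of-care or investigational agents. Top concentration at or near clinical Cmax, half-log dilutions; final DMSO ≤0.25%.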

Setting [1] is: curve of first compound, second compound 0.1 µM.
Setting [2] is: curve of first compound, second compound 0.316 µM.
Setting [3] is: curve of first compound, second compound 1 µM.
[4] abbreviates: curve of first compound, second compound 3.16 µM.
The mark [5] stands for this setting: curve of first compound, second compound 10 µM.
The mark [6] stands for this setting: second compound 0.1 µM, first compound 0.000949 µM.
Setting [7] is: second compound 0.1 µM, first compound 0.003 µM.
[8] abbreviates: second compound 0.1 µM, first compound 0.00949 µM.
Setting [9] is: second compound 0.1 µM, first compound 0.03 µM.
[10] abbreviates: second compound 0.1 µM, first compound 0.0949 µM.
The mark [11] stands for this setting: second compound 0.1 µM, first compound 0.3 µM.
Where [12] appears, read: second compound 0.316 µM, first compound 0.000949 µM.
Setting [13] is: second compound 0.316 µM, first compound 0.003 µM.
Setting [14] is: second compound 0.316 µM, first compound 0.00949 µM.
The mark [15] stands for this setting: second compound 0.316 µM, first compound 0.03 µM.
Setting [16] is: second compound 0.316 µM, first compound 0.0949 µM.
[17] abbreviates: second compound 0.316 µM, first compound 0.3 µM.
[18] abbreviates: second compound 1 µM, first compound 0.000949 µM.
[19] abbreviates: second compound 1 µM, first compound 0.003 µM.
[20] abbreviates: second compound 1 µM, first compound 0.00949 µM.
[21] abbreviates: second compound 1 µM, first compound 0.03 µM.
Setting [22] is: second compound 1 µM, first compound 0.0949 µM.
Where [23] appears, read: second compound 1 µM, first compound 0.3 µM.
Where [24] appears, read: second compound 3.16 µM, first compound 0.000949 µM.
Where [25] appears, read: second compound 3.16 µM, first compound 0.003 µM.
[26] abbreviates: second compound 3.16 µM, first compound 0.00949 µM.
Where [27] appears, read: second compound 3.16 µM, first compound 0.03 µM.
Where [28] appears, read: second compound 3.16 µM, first compound 0.0949 µM.
[29] abbreviates: second compound 3.16 µM, first compound 0.3 µM.
Where [30] appears, read: second compound 10 µM, first compound 0.000949 µM.
Setting [31] is: second compound 10 µM, first compound 0.003 µM.
[32] abbreviates: second compound 10 µM, first compound 0.00949 µM.
Where [33] appears, read: second compound 10 µM, first compound 0.03 µM.
Setting [34] is: second compound 10 µM, first compound 0.0949 µM.
[35] abbreviates: second compound 10 µM, first compound 0.3 µM.

“And” between values parts separate entries of the source, which are not always exact repeats. Identical values can stand only once.

One may read the IC50 as the concentration at which inhibition is half-maximal. In general, viability, T/C refers to the ratio of treated to control.
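Also: drug exposure lasted 7 days starting on day 3 after seeding.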
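For viability, T/C in this document: luminescence viability as percent of DMSO vehicle wells = 100%.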

Take `Nc1ccn(C2OC(CO)C(O)C2(F)F)c(=O)n1` (stereo not given) + NC1CCC(NC2CC2c2ccccc2)CC1: the IC50 is 4.38 nM under setting [1]; 5.79 nM under setting [2]; 6.14 nM under setting [3]; 6.83 nM under setting [4]; 8.48 nM under setting [5]. Besides, the viability, T/C runs as follows: under setting [6], 90.5%; under setting [7], 53.3%; under setting [8], 39.5%; under setting [9], 34.7%; under setting [10], 28.7%; under setting [11], 24.4%. Further, the viability, T/C was 86.6% under setting [12]; 58.9% under setting [13]; 41.3% under setting [14]; 34.8% under setting [15]; 30% under setting [16]; 20.6% under setting [17]. Also, the viability, T/C was 88.5% under setting [18]; 57.2% under setting [19]; 45.4% under setting [20]; 37.9% under setting [21]; 32.5% under setting [22]; 28.6% under setting [23]. In addition, the viability, T/C under setting [24] is 79.2%; the viability, T/C under setting [25] is 63.1%; the viability, T/C under setting [26] was 43.5%; the viability, T/C under setting [27] is 35.1%; the viability, T/C under setting [28] is 26.8%; the viability, T/C under setting [29] is 24.7%. Also, the viability, T/C was 82.1% under setting [30]; 55.9% under setting [31]; 52% under setting [32]; 39.9% under setting [33]; 27.6% under setting [34]; 22.3% under setting [35].

Turning to `NS(=O)(=O)OCC1CC(n2ccc3c(NC4CCc5ccccc54)ncnc32)CC1O` (stereo not given), the viability, T/C reads like this: (compound 0.00949 µM) 97.8% and 103%; (compound 0.03 µM) 81% and 96.5%; (compound 0.0949 µM) 81.1% and 100%; (compound 0.3 µM) 63.5% and 87.5%; (compound 0.949 µM) 25.4% and 33.6%; (compound 3 µM) 9.22% and 9.95%. In addition, the IC50 (curve of compound) was 436 nM and 668 nM.

Consider `COc1cc(C2c3cc4c(cc3C(OC3OC5COC(C)OC5C(O)C3O)C3COC(=O)C23)OCO4)cc(OC)c1O` (stereo not given), for which the viability, T/C (compound 0.00949 µM) was 88.6% and 97.5%; the viability, T/C (compound 0.03 µM) is 79.6% and 102%; the viability, T/C (compound 0.0949 µM) was 61% and 58.4%; the viability, T/C (compound 0.3 µM) is 28.3% and 31.1%; the viability, T/C (compound 0.949 µM) was 13.5% and 15.1%; the viability, T/C (compound 3 µM) was 6.36% and 6.7%. In addition, where the note is “curve of compound”, the IC50 is 138 nM and 148 nM.

In the case of `NC1CCC(NC2CC2c2ccccc2)CC1` (stereo not given), the viability, T/C runs as follows: (compound 0.1 µM) 89.9% [middle of 25 runs]; (compound 0.316 µM) 96.7% and 90.2%; (compound 1 µM) 86.6% [middle of 25 runs]; (compound 3.16 µM) 87.7% [middle of 25 runs]; (compound 10 µM) 78.7% [middle of 23 runs]. Further, the IC50 (compound alone, run of 11/29/2021) is more than 10000 nM.

With `Nc1ncn(C2CC(O)C(CO)S2)c(=O)n1` (stereo not given) + NC1CCC(NC2CC2c2ccccc2)CC1, the half-maximal inhibitory concentration (IC50) under setting [1] was more than 300 nM; the IC50 under setting [2] is more than 300 nM; the IC50 under setting [3] is more than 300 nM; the IC50 under setting [4] was more than 300 nM; the IC50 under setting [5] was more than 300 nM. Also, the viability, T/C was 99.6% under setting [6]; 93.5% under setting [7]; 85.8% under setting [8]; 90.1% under setting [9]; 93.8% under setting [10]; 73% under setting [11]. Further, the viability, T/C by setting is: under setting [12], 95.5%; under setting [13], 89.3%; under setting [14], 89%; under setting [15], 89.5%; under setting [16], 97.8%; under setting [17], 80.1%. For the same compound, the viability, T/C is, setting by setting: under setting [18], 87.1%; under setting [19], 87.9%; under setting [20], 86.4%; under setting [21], 89.2%; under setting [22], 86.6%; under setting [23], 78.1%. Besides, the viability, T/C runs as follows: under setting [24], 92.4%; under setting [25], 91.7%; under setting [26], 84%; under setting [27], 92.8%; under setting [28], 87%; under setting [29], 73.4%. For the same compound, the viability, T/C is 89.5% under setting [30]; 81.7% under setting [31]; 82.9% under setting [32]; 82.7% under setting [33]; 82.1% under setting [34]; 74.5% under setting [35].

Regarding `O=C(C=Cc1cccc(S(=O)(=O)Nc2ccccc2)c1)NO` + NC1CC1c1ccc(-c2cccc(O)c2)cc1, the IC50 was found to be 446 nM under setting [1]; 448 nM under setting [2]; 404 nM under setting [3]; 466 nM under setting [4]; 336 nM under setting [5]. Besides, the viability, T/C was 102% under setting [8]; 109% under setting [9]; 106% under setting [10]; 66.2% under setting [11]; 17.4% (second compound 0.1 µM, first compound 0.949 µM); 0.43% (second compound 0.1 µM, first compound 3 µM). Besides, the viability, T/C by setting is: under setting [14], 103%; under setting [15], 112%; under setting [16], 122%; under setting [17], 66.4%; (second compound 0.316 µM, first compound 0.949 µM) 19.4%; (second compound 0.316 µM, first compound 3 µM) 0.31%. The viability, T/C runs as follows: under setting [20], 100%; under setting [21], 116%; under setting [22], 114%; under setting [23], 60.4%; (second compound 1 µM, first compound 0.949 µM) 18.3%; (second compound 1 µM, first compound 3 µM) 0.29%. Besides, the viability, T/C under setting [26] was 94.5%; the viability, T/C under setting [27] was 105%; the viability, T/C under setting [28] was 118%; the viability, T/C under setting [29] is 69.8%; the viability, T/C (second compound 3.16 µM, first compound 0.949 µM) is 17.1%; the viability, T/C (second compound 3.16 µM, first compound 3 µM) was 0.24%. The viability, T/C was 97.6% under setting [32]; 108% under setting [33]; 106% under setting [34]; 54% under setting [35]; 10.9% (second compound 10 µM, first compound 0.949 µM); 0.27% (second compound 10 µM, first compound 3 µM).
